US11174291B2, “Silstatin compounds” (Arizona Board of Regents on behalf of Arizona State …, priority 2015, dated 2021)

Experiments:
Type in all cases: cell-based, human
KM20L2 = experiment: NCI sulforhodamine B growth inhibition, colon cancer cells; conditions: 48 h
Description: (§1) Inhibition of human cancer cell growth was assessed using the National Cancer Institute's standard sulforhodamine B assay as previously described.^19In summary, cells in a 5% fetal bovine serum/RPMI1640 medium were inoculated in 96-well plates and incubated for 24 hrs. Next, serial dilutions of the compounds were added. After 48 h, the plates were fixed with trichloroacetic acid, stained with sulforhodamine B, and read with an automated microplate reader. A growth inhibition of 50% (GI50 or the drug concentration causing a 50% reduction in the net protein increase) was calcd from optical density data with Immunosoft software. Normal cells were treated in identical conditions. Normal human prostate CRL-2221 (PZ—HPV-7) was grown in MEM 10% FBS and normal human breast MCF-10A in MEGM kit.

SF268 = experiment: NCI sulforhodamine B growth inhibition, CNS cancer cells; conditions: 48 h
Description: as §1

NCI-H460 = experiment: NCI sulforhodamine B growth inhibition, lung cancer cells; conditions: 48 h
Description: as §1

[1] = tested on: mini panel of cancer cell lines; experiment: Growth inhibition across the mini panel of cancer cell lines; conditions: mini panel of cancer cell lines (Table 1)
Description: as §1
The growth inhibition property of the silstatins and some intermediates were evaluated against a mini panel of cancer cell lines (Table 1).

MCF-7 = experiment: NCI sulforhodamine B growth inhibition, breast cancer cells; conditions: MCF-7 breast, 48 h
Description: as §1

DU-145 = experiment: NCI sulforhodamine B growth inhibition, prostate cancer cells; conditions: DU145 prostate, 48 h
Description: as §1

BXPC-3 = experiment: NCI sulforhodamine B growth inhibition, pancreas cancer cells; conditions: BXPC3 pancreas, 48 h
Description: as §1

Row | SMILES | Growth inhibition of human cancer cell lines GI50 (KM20L2) [µg/mL] | Growth inhibition of human cancer cell lines GI50 (SF268) [µg/mL] | Growth inhibition of human cancer cell lines GI50 (NCI-H460) [µg/mL] | Cancer cell growth inhibition, assessment in words [1] | Growth inhibition of human cancer cell lines GI50 (MCF-7) [µg/mL] | Growth inhibition of human cancer cell lines GI50 (DU-145) [µg/mL] | Growth inhibition of human cancer cell lines GI50 (BXPC-3) [µg/mL]
1 | CC(C)[C@@H]1NC(=O)[C@H](C)OC(=O)[C@@H](C(C)C)NC(=O)[C@@H](CC2CCCCC2)OC(=O)[C@H](C(C)C)NC(=O)[C@H](C)OC(=O)[C@@H](C(C)C)NC(=O)[C@@H](CC2CCCCC2)OC(=O)[C@H](C(C)C)NC(=O)[C@H](C)OC(=O)[C@@H](C(C)C)NC(=O)[C@@H](CC2CCCCC2)OC1=O [Silstatin 4 (14a), Cyclo-[Val-D-Hcha-D-Val-Lac]3] | 0.18 | 0.081 | 0.4 | marked reduction of cancer cell growth inhibition capability | 0.18 | 0.22 | 0.5
2 | CC(C)C[C@H]1OC(=O)[C@H](Cc2ccc(OC(C)(C)C)cc2)NC(=O)[C@H](C)OC(=O)[C@@H](C(C)C)NC(=O)[C@@H](CC(C)C)OC(=O)[C@H](C(C)C)NC(=O)[C@H](C)OC(=O)[C@@H](C(C)C)NC(=O)[C@@H](CC(C)C)OC(=O)[C@H](C(C)C)NC(=O)[C@H](C)OC(=O)[C@@H](C(C)C)NC1=O [Silstatin 7c, Cyclo-{Tyr(tBu)-D-Hica-D-Val-Lac-[Val-D-Hica-D-Val-Lac]2}] | 0.0048 | 0.0025 | 0.029 |  | 0.0042 | 0.011 | 0.03
3 | CC(C)[C@@H]1NC(=O)[C@H](C)OC(=O)[C@@H](C(C)C)NC(=O)[C@@H](CC2CCCCC2)OC(=O)[C@H]([C@@H](C)OC(C)(C)C)NC(=O)[C@H](C)OC(=O)[C@@H](C(C)C)NC(=O)[C@@H](CC2CCCCC2)OC(=O)[C@H](C(C)C)NC(=O)[C@H](C)OC(=O)[C@@H](C(C)C)NC(=O)[C@@H](CC2CCCCC2)OC1=O [Silstatin 14b, Cyclo-{Thr(tBu)-D-Hcha-D-Val-Lac-[Val-D-Hcha-D-Val-Lac]2}] | 0.08 | 0.075 | 0.32 |  | 0.075 | 0.12 | 0.18
4 | CC(C)C[C@H]1OC(=O)[C@H](C(C)C)NC(=O)[C@H](C)OC(=O)[C@@H](C(C)C)NC(=O)[C@@H](CC(C)C)OC(=O)[C@H](C(C)C)NC(=O)[C@H](C)OC(=O)[C@@H](C(C)C)NC(=O)[C@@H](CC2CCCCC2)OC(=O)[C@H](Cc2ccc(O)cc2)NC(=O)[C@H](C)OC(=O)[C@@H](C(C)C)NC1=O [Silstatin 8 (18b), Cyclo-{Tyr-D-Hcha-D-Val-Lac-[Val-D-Hica-D-Val-Lac]2}] | 0.0021 | 0.003 | 0.004 | rescuing the activity | 0.0011 | 0.0054 | 0.006
5 | CC(C)C[C@H]1OC(=O)[C@H](C(C)C)NC(=O)[C@H](C)OC(=O)[C@@H](C(C)C)NC(=O)[C@@H](CC(C)C)OC(=O)[C@H](C(C)C)NC(=O)[C@H](C)OC(=O)[C@@H](C(C)C)NC(=O)[C@@H](CC(C)C)OC(=O)[C@H](C(C)C)NC(=O)[C@H](C)OC(=O)[C@@H](C(C)C)NC1=O [Silstatin 1 (7a), Cyclo-[Val-D-Hica-D-Val-Lac]3] | 0.00016 | 0.00021 | 0.0007 | did not affect its high potency | 0.00011 | 0.00042 | 0.0008
6 | CC(C)[C@@H]1NC(=O)[C@H](C)OC(=O)[C@@H](C(C)C)NC(=O)[C@@H](CC2CCCCC2)OC(=O)[C@H](C(C)C)NC(=O)[C@H](C)OC(=O)[C@@H](C(C)C)NC(=O)[C@@H](CC2CCCCC2)OC(=O)[C@H](Cc2ccc(OC(C)(C)C)cc2)NC(=O)[C@H](C)OC(=O)[C@@H](C(C)C)NC(=O)[C@@H](CC2CCCCC2)OC1=O [Silstatin 14c, Cyclo-{Tyr(tBu)-D-Hcha-D-Val-Lac-[Val-D-Hcha-D-Val-Lac]2}] | >1 | >1 | >1 |  | >1 | >1 | >1
7 | CC(C)C[C@H]1OC(=O)[C@H](C(C)C)NC(=O)[C@H](C)OC(=O)[C@@H](C(C)C)NC(=O)[C@@H](CC2CCCCC2)OC(=O)[C@H]([C@@H](C)OC(C)(C)C)NC(=O)[C@H](C)OC(=O)[C@@H](C(C)C)NC(=O)[C@@H](CC(C)C)OC(=O)[C@H](C(C)C)NC(=O)[C@H](C)OC(=O)[C@@H](C(C)C)NC1=O [Silstatin 17a, Cyclo-{Thr(tBu)-D-Hcha-D-Val-Lac-[Val-D-Hica-D-Val-Lac]2}] | 0.0024 | 0.004 | 0.009 |  | 0.001 | 0.007 | 0.023
8 | CC(C)C[C@H]1OC(=O)[C@H](C(C)C)NC(=O)[C@H](C)OC(=O)[C@@H](C(C)C)NC(=O)[C@@H](CC(C)C)OC(=O)[C@H](C(C)C)NC(=O)[C@H](C)OC(=O)[C@@H](C(C)C)NC(=O)[C@@H](CC2CCCCC2)OC(=O)[C@H](Cc2ccc(OC(C)(C)C)cc2)NC(=O)[C@H](C)OC(=O)[C@@H](C(C)C)NC1=O [Silstatin 17b, Cyclo-{Tyr(tBu)-D-Hcha-D-Val-Lac-[Val-D-Hica-D-Val-Lac]2}] | 0.052 | 0.06 | 0.12 |  | 0.032 | 0.04 | 0.09
